Where a SMILES comes first, the peptide text is derived from it.
Target: T1, UBR4^UBR (UBR box of Human UBR4) (Homo sapiens, UniProt Q5T4S7)
T1 construct: UBR box residues 1660-1729 (Methods; Results b12 prints 1669-1729); N-terminal 10His-MBP tag kept for ITC, cut with TEV for crystals; E. coli BL21(DE3) RIL; three zinc ions; crystal 8J9R from YIFS-UBR4 (YIFS fused at N-terminus, LC3B tag removed by ATG4B)
Experiment: ITC
Format: binding
Conditions: pH 7.5, 200 mM NaCl, 25 °C; 0.225 mM protein, 4.5 mM peptide; 10His-MBP-tagged protein

T1 sequence (Q5T4S7 1660-1729): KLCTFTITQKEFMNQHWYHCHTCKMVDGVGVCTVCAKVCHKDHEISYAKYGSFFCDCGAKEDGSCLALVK

**Q.** With `CC[C@H](C)[C@H](NC(=O)[C@@H](N)CCCNC(=N)N)C(=O)N[C@@H](Cc1ccccc1)C(=O)N[C@@H](CO)C(=O)O` [RIFS] (H-RIFS-OH) as the compound, how does the Kd read?
**A.** The Kd was 626 ± 29 µM.
